Reference: the NIST ThermoML archive (doi:10.1016/j.jct.2011.06.020)

Assay: xn = mol fraction of the nth substance listed
Details: for surface tension liquid-gas: Tensiometer with plate; for viscosity / mass density: 101 kPa, Liquid; for viscosity: Capillary tube (Ostwald / Ubbelohde) method; for mass density: Vibrating tube method

CN1CCNCC1 [N-methylpiperazine] + O
Details | mass density [kg/m3] | surface tension liquid-gas [mN/m] | viscosity [mPa·s]
293.15 K, x1 = 0.1 | – | 47.64 | –
293.15 K, x1 = 0.1998 | – | 43.4 | –
293.15 K, x1 = 0.2994 | – | 38.68 | –
293.15 K, x1 = 0.4073 | – | 35.89 | –
293.15 K, x1 = 0.4983 | – | 34.37 | –
293.15 K, x1 = 0.5934 | – | 33.18 | –
293.15 K, x1 = 0.6979 | – | 32.35 | –
293.15 K, x1 = 0.7994 | – | 31.68 | –
293.15 K, x1 = 0.8978 | – | 31.15 | –
293.15 K, x1 = 1 | – | 30.65 | –
298.15 K, x1 = 0.0521 | 1001.67 | – | 3.324
298.15 K, x1 = 0.0725 | 1005.26 | – | 5.564
298.15 K, x1 = 0.1039 | 1009.54 | – | 10.76
298.15 K, x1 = 0.2091 | 1001.33 | – | 35.24
298.15 K, x1 = 0.3101 | 981.31 | – | 36.42
298.15 K, x1 = 0.4096 | 962.21 | – | 23.48
298.15 K, x1 = 0.5109 | 946.41 | – | 13.36
298.15 K, x1 = 0.608 | 933.25 | – | 7.957
298.15 K, x1 = 0.7065 | 922.31 | – | 4.893
298.15 K, x1 = 0.8069 | 913.72 | – | 3.383
298.15 K, x1 = 0.8819 | 906.76 | – | 2.552
298.15 K, x1 = 1 | 898.81 | – | 1.87
303.15 K, x1 = 0.0521 | 999.31 | – | 2.752
303.15 K, x1 = 0.0725 | 1002.36 | – | 4.48
303.15 K, x1 = 0.1 | – | 46.73 | –
303.15 K, x1 = 0.1039 | 1005.87 | – | 8.223
303.15 K, x1 = 0.1998 | – | 42.1 | –
303.15 K, x1 = 0.2091 | 996.94 | – | 25.01
303.15 K, x1 = 0.2994 | – | 38.07 | –
303.15 K, x1 = 0.3101 | 976.94 | – | 25.74
303.15 K, x1 = 0.4073 | – | 35.25 | –
303.15 K, x1 = 0.4096 | 957.88 | – | 17.12
303.15 K, x1 = 0.4983 | – | 33.82 | –
303.15 K, x1 = 0.5109 | 942.03 | – | 10.17
303.15 K, x1 = 0.5934 | – | 32.73 | –
303.15 K, x1 = 0.608 | 928.88 | – | 6.246
303.15 K, x1 = 0.6979 | – | 31.78 | –
303.15 K, x1 = 0.7065 | 917.92 | – | 4.048
303.15 K, x1 = 0.7994 | – | 31.16 | –
303.15 K, x1 = 0.8069 | 909.33 | – | 2.835
303.15 K, x1 = 0.8819 | 902.37 | – | 2.188
303.15 K, x1 = 0.8978 | – | 30.7 | –
303.15 K, x1 = 1 | 894.43 | 30.34 | 1.618
308.15 K, x1 = 0.1 | – | 45.72 | –
308.15 K, x1 = 0.1998 | – | 40.74 | –
308.15 K, x1 = 0.2994 | – | 37.57 | –
308.15 K, x1 = 0.4073 | – | 34.71 | –
308.15 K, x1 = 0.4983 | – | 33.32 | –
308.15 K, x1 = 0.5934 | – | 32.06 | –
308.15 K, x1 = 0.6979 | – | 31.25 | –
308.15 K, x1 = 0.7994 | – | 30.8 | –
308.15 K, x1 = 0.8978 | – | 30.2 | –
308.15 K, x1 = 1 | – | 29.86 | –
313.15 K, x1 = 0.0521 | 994.17 | – | 1.987
313.15 K, x1 = 0.0725 | 996.21 | – | 3.048
313.15 K, x1 = 0.1 | – | 44.4 | –
313.15 K, x1 = 0.1039 | 998.34 | – | 5.183
313.15 K, x1 = 0.1998 | – | 39.61 | –
313.15 K, x1 = 0.2091 | 988.01 | – | 13.66
313.15 K, x1 = 0.2994 | – | 36.37 | –
313.15 K, x1 = 0.3101 | 968.03 | – | 13.97
313.15 K, x1 = 0.4073 | – | 34.03 | –
313.15 K, x1 = 0.4096 | 949.09 | – | 9.817
313.15 K, x1 = 0.4983 | – | 32.66 | –
313.15 K, x1 = 0.5109 | 933.18 | – | 6.25
313.15 K, x1 = 0.5934 | – | 31.58 | –
313.15 K, x1 = 0.608 | 920.04 | – | 4.118
313.15 K, x1 = 0.6979 | – | 30.76 | –
313.15 K, x1 = 0.7065 | 909.07 | – | 2.846
313.15 K, x1 = 0.7994 | – | 30.4 | –
313.15 K, x1 = 0.8069 | 900.47 | – | 2.091
313.15 K, x1 = 0.8819 | 893.54 | – | 1.673
313.15 K, x1 = 0.8978 | – | 29.71 | –
313.15 K, x1 = 1 | 885.62 | 29.23 | 1.302
318.15 K, x1 = 0.1 | – | 43.02 | –
318.15 K, x1 = 0.1998 | – | 38.31 | –
318.15 K, x1 = 0.2994 | – | 35.73 | –
318.15 K, x1 = 0.4073 | – | 33.43 | –
318.15 K, x1 = 0.4983 | – | 32.08 | –
318.15 K, x1 = 0.5934 | – | 30.99 | –
318.15 K, x1 = 0.6979 | – | 30.23 | –
318.15 K, x1 = 0.7994 | – | 29.83 | –
318.15 K, x1 = 0.8978 | – | 29.14 | –
318.15 K, x1 = 1 | – | 28.78 | –
323.15 K, x1 = 0.1 | – | 41.72 | –
323.15 K, x1 = 0.1998 | – | 37.83 | –
323.15 K, x1 = 0.2994 | – | 34.87 | –
323.15 K, x1 = 0.4073 | – | 32.92 | –
323.15 K, x1 = 0.4983 | – | 31.67 | –
323.15 K, x1 = 0.5934 | – | 30.57 | –
323.15 K, x1 = 0.6979 | – | 29.67 | –
323.15 K, x1 = 0.7994 | – | 29.24 | –
323.15 K, x1 = 0.8978 | – | 28.53 | –
323.15 K, x1 = 1 | – | 28.11 | –
325.15 K, x1 = 0.0521 | 988.47 | – | 1.5
325.15 K, x1 = 0.0725 | 989.64 | – | 2.188
325.15 K, x1 = 0.1039 | 990.55 | – | –
325.15 K, x1 = 0.2091 | 978.98 | – | 8.128
325.15 K, x1 = 0.3101 | 958.91 | – | 8.263
325.15 K, x1 = 0.4096 | 940.1 | – | –
325.15 K, x1 = 0.5109 | 924.16 | – | 4.171
325.15 K, x1 = 0.608 | 911.05 | – | 2.876
325.15 K, x1 = 0.7065 | 900.09 | – | 2.076
325.15 K, x1 = 0.8069 | 891.49 | – | 1.607
325.15 K, x1 = 0.8819 | 884.6 | – | 1.324
325.15 K, x1 = 1 | 876.71 | – | 1.065
333.15 K, x1 = 0.0521 | 982.25 | – | 1.18
333.15 K, x1 = 0.0725 | 982.66 | – | 1.651
333.15 K, x1 = 0.1 | – | 39.98 | –
333.15 K, x1 = 0.1039 | 982.5 | – | 2.474
333.15 K, x1 = 0.1998 | – | 36.47 | –
333.15 K, x1 = 0.2091 | 969.64 | – | 5.188
333.15 K, x1 = 0.2994 | – | 33.61 | –
333.15 K, x1 = 0.3101 | 949.58 | – | 5.244
333.15 K, x1 = 0.4073 | – | 31.68 | –
333.15 K, x1 = 0.4096 | 930.91 | – | 4.021
333.15 K, x1 = 0.4983 | – | 30.32 | –
333.15 K, x1 = 0.5109 | 914.98 | – | 2.894
333.15 K, x1 = 0.5934 | – | 29.76 | –
333.15 K, x1 = 0.608 | 901.91 | – | 2.109
333.15 K, x1 = 0.6979 | – | 28.76 | –
333.15 K, x1 = 0.7065 | 891 | – | 1.592
333.15 K, x1 = 0.7994 | – | 27.93 | –
333.15 K, x1 = 0.8069 | 882.42 | – | 1.277
333.15 K, x1 = 0.8819 | 875.57 | – | 1.09
333.15 K, x1 = 0.8978 | – | 27.7 | –
333.15 K, x1 = 1 | 867.73 | 27.17 | 0.9
343.15 K, x1 = 0.0521 | 975.55 | – | 0.942
343.15 K, x1 = 0.0725 | 975.29 | – | 1.281
343.15 K, x1 = 0.1039 | 974.18 | – | 1.827
343.15 K, x1 = 0.2091 | 960.1 | – | 3.514
343.15 K, x1 = 0.3101 | 940.04 | – | 3.54
343.15 K, x1 = 0.4096 | 921.51 | – | 2.81
343.15 K, x1 = 0.5109 | 905.65 | – | 2.12
343.15 K, x1 = 0.608 | 892.65 | – | 1.607
343.15 K, x1 = 0.7065 | 881.79 | – | 1.264
343.15 K, x1 = 0.8069 | 873.22 | – | 1.074
343.15 K, x1 = 0.8819 | 866.45 | – | 0.906
343.15 K, x1 = 1 | 858.66 | – | 0.768
